# pIC50: −log10 of the molar value. Non-standard residues stand in square brackets, D forms with d. Residues, ends and D or L forms follow the SMILES beside them. *: point of attachment. Benzoyl(4-OPh(4-CONH2)) = NC(=O)c1ccc(Oc2ccc(C(=O)*)cc2)cc1; Benzenesulfonyl(4-OPh) = O=S(=O)(c1ccc(Oc2ccccc2)cc1)*; Benzenesulfonyl(4-Ph) = O=S(=O)(c1ccc(-c2ccccc2)cc1)*; X1 = O=C(CCCCS(=O)(=O)c1ccc(Oc2ccccc2)cc1)*; Benzoyl(4-OPh) = O=C(c1ccc(Oc2ccccc2)cc1)*; X2 = O=C(c1ccc(Oc2ccc(F)cc2)cc1)*; NMeI = CC[C@H](C)[C@H](NC)C(=O)O; NMeE = CN[C@@H](CCC(=O)O)C(=O)O; NMeL = CN[C@@H](CC(C)C)C(=O)O; NMeM = CN[C@@H](CCSC)C(=O)O; NMeV = CN[C@H](C(=O)O)C(C)C; β3hP = O=C(O)C[C@@H]1CCCN1; Orn = NCCC[C@H](N)C(=O)O; Dab = NCC[C@H](N)C(=O)O; Dap = NC[C@H](N)C(=O)O; Ahx = NCCCCCC(=O)O; Ava = NCCCCC(=O)O; GABA = NCCCC(=O)O; βAla = NCCC(=O)O
# Tests used:
# [1] = species: Homo sapiens; assay: Selectivity ratio of IC50 for recombinant human MMP12 to IC50 for recombinant human MMP2
# [2] = molecular target: 72 kDa type IV collagenase (Homo sapiens, UniProt P08253)
# [3] = molecular target: Collagenase 3 (Homo sapiens, UniProt P45452)
# 72 kDa type IV collagenase, sequence (P08253 whole entry): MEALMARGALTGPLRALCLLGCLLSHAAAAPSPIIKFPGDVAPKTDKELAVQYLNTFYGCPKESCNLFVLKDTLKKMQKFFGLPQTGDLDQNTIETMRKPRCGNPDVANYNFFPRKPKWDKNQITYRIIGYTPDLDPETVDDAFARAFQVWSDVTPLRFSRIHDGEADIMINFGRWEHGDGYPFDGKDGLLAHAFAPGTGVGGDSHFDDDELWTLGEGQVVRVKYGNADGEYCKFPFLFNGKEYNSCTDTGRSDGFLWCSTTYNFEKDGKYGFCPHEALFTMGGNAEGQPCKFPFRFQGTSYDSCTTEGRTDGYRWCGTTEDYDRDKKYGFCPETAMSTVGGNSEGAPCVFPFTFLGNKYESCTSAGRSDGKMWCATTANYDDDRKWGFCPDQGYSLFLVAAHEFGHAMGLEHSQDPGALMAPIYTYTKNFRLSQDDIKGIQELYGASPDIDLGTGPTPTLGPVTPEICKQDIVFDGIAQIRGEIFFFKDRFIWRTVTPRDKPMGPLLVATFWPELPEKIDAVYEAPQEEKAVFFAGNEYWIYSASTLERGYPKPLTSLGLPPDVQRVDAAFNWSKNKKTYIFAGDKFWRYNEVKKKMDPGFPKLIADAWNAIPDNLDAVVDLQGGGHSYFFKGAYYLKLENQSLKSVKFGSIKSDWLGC
SMILES,Ratio IC50 [1],pIC50 [2],pIC50 [3]
CC(C)C[C@H](NC(=O)[C@H](C)NC(=O)[C@H](CC(=O)O)NC(=O)[C@H](CC(N)=O)NC(=O)CCCNS(=O)(=O)c1ccc(Oc2ccccc2)cc1)C(=O)N(C)[C@@H](CC(C)C)C(=O)N1CCC[C@H]1C(N)=O ({Benzenesulfonyl(4-OPh)-GABA}-NDAL[NMeL]P-NH2),62,10.18,8.04
CC(C)C[C@H](NC(=O)[C@H](C)NC(=O)[C@H](CC(=O)O)NC(=O)[C@H](CC(N)=O)NC(=O)CCCNS(=O)(=O)c1ccc(Oc2ccccc2)cc1)C(=O)N(C)[C@@H](CC(C)C)C(=O)N1CCC[C@H]1CC(N)=O ({Benzenesulfonyl(4-OPh)-GABA}-NDAL[NMeL][β3hP]-NH2),24,10.26,7.82
CC(C)C[C@H](NC(=O)[C@H](C)NC(=O)[C@H](CC(=O)O)NC(=O)[C@H](CC(N)=O)NC(=O)CCCNS(=O)(=O)c1ccc(Oc2ccccc2)cc1)C(=O)N(C)[C@H](C(=O)N1CCC[C@H]1CC(N)=O)C(C)C ({Benzenesulfonyl(4-OPh)-GABA}-NDAL[NMeV][β3hP]-NH2),122,10.34,7.60
CC[C@H](C)[C@@H](C(=O)N1CCC[C@H]1C(N)=O)N(C)C(=O)[C@H](CC(C)C)NC(=O)[C@H](C)NC(=O)[C@H](CC(=O)O)NC(=O)[C@H](CC(N)=O)NC(=O)CCCNS(=O)(=O)c1ccc(Oc2ccccc2)cc1 ({Benzenesulfonyl(4-OPh)-GABA}-NDAL[NMeI]P-NH2),186,10.01,7.80
CC(C)C[C@H](NC(=O)[C@H](CCN)NC(=O)[C@H](CC(=O)O)NC(=O)[C@H](CC(N)=O)NC(=O)CCCNC(=O)c1ccc(Oc2ccccc2)cc1)C(=O)N(C)[C@@H](CCC(=O)O)C(=O)N1CCC[C@H]1CC(N)=O ({Benzoyl(4-OPh)-GABA}-ND[Dab]L[NMeE][β3hP]-NH2),27200,–,5.70
CSCC[C@H](NC(=O)[C@H](CC(C)C)NC(=O)[C@H](C)NC(=O)[C@H](CC(=O)O)NC(=O)[C@H](CC(N)=O)NC(=O)CCCCS(=O)(=O)c1ccc(Oc2ccccc2)cc1)C(=O)N1CCC[C@H]1C(N)=O (X1-NDALMP-NH2),69,10.05,7.24
CC[C@H](C)[C@@H](C(=O)N1CCC[C@H]1CC(N)=O)N(C)C(=O)[C@H](CC(C)C)NC(=O)[C@H](CCN)NC(=O)[C@H](CC(=O)O)NC(=O)[C@H](CC(N)=O)NC(=O)CCCNS(=O)(=O)c1ccc(Oc2ccccc2)cc1 ({Benzenesulfonyl(4-OPh)-GABA}-ND[Dab]L[NMeI][β3hP]-NH2),6010,10.05,6.35
CC(C)C[C@H](NC(=O)[C@H](CCN)NC(=O)[C@H](CC(=O)O)NC(=O)[C@H](CC(N)=O)NC(=O)CCCCCNC(=O)c1ccc(Oc2ccc(C(N)=O)cc2)cc1)C(=O)N(C)[C@@H](CCC(=O)O)C(=O)N1CCC[C@H]1CC(N)=O ({Benzoyl(4-OPh(4-CONH2))-Ahx}-ND[Dab]L[NMeE][β3hP]-NH2),15600,9.89,6.72
CSCC[C@H](NC(=O)[C@H](CC(C)C)NC(=O)[C@H](C)NC(=O)[C@H](CC(=O)O)NC(=O)[C@H](CC(N)=O)NC(=O)CCCNS(=O)(=O)c1ccc(-c2ccccc2)cc1)C(=O)N1CCC[C@H]1C(N)=O ({Benzenesulfonyl(4-Ph)-GABA}-NDALMP-NH2),5,8.04,5.95
CSCC[C@H](NC(=O)[C@H](CC(C)C)NC(=O)[C@H](C)NC(=O)[C@H](CC(=O)O)NC(=O)[C@H](CC(N)=O)NC(=O)CCNS(=O)(=O)c1ccc(-c2ccccc2)cc1)C(=O)N1CCC[C@H]1C(N)=O ({Benzenesulfonyl(4-Ph)-βAla}-NDALMP-NH2),18,8.20,5.76
CC[C@H](C)[C@@H](C(=O)N1CCC[C@H]1CC(N)=O)N(C)C(=O)[C@H](CC(C)C)NC(=O)[C@H](CN)NC(=O)[C@H](CC(=O)O)NC(=O)[C@H](CC(N)=O)NC(=O)CCCNS(=O)(=O)c1ccc(Oc2ccccc2)cc1 ({Benzenesulfonyl(4-OPh)-GABA}-ND[Dap]L[NMeI][β3hP]-NH2),977,9.89,6.56
CSCC[C@H](NC(=O)[C@H](CC(C)C)NC(=O)[C@H](C)NC(=O)[C@H](CC(=O)O)NC(=O)[C@H](CC(N)=O)NC(=O)CCNS(=O)(=O)c1ccc(Oc2ccccc2)cc1)C(=O)N1CCC[C@H]1C(N)=O ({Benzenesulfonyl(4-OPh)-βAla}-NDALMP-NH2),51,9.31,6.94
CC[C@H](C)[C@@H](C(=O)N1CCC[C@H]1CC(N)=O)N(C)C(=O)[C@H](CC(C)C)NC(=O)[C@H](CCCN)NC(=O)[C@H](CC(=O)O)NC(=O)[C@H](CC(N)=O)NC(=O)CCCNS(=O)(=O)c1ccc(Oc2ccccc2)cc1 ({Benzenesulfonyl(4-OPh)-GABA}-ND[Orn]L[NMeI][β3hP]-NH2),189,9.21,6.87
CSCC[C@H](NC(=O)[C@H](CC(C)C)NC(=O)[C@H](C)NC(=O)[C@H](CC(=O)O)NC(=O)[C@H](CC(N)=O)NC(=O)CCCCNS(=O)(=O)c1ccc(-c2ccccc2)cc1)C(=O)N1CCC[C@H]1C(N)=O ({Benzenesulfonyl(4-Ph)-Ava}-NDALMP-NH2),12,8.54,5.77
CC(C)C[C@H](NC(=O)[C@H](CCN)NC(=O)[C@H](CC(=O)O)NC(=O)[C@H](CC(N)=O)NC(=O)CCCNC(=O)c1ccc(Oc2ccc(F)cc2)cc1)C(=O)N(C)[C@@H](CCC(=O)O)C(=O)N1CCC[C@H]1CC(N)=O ({X2-GABA}-ND[Dab]L[NMeE][β3hP]-NH2),40700,9.96,5.89
CSCC[C@H](NC(=O)[C@H](CC(C)C)NC(=O)[C@H](C)NC(=O)[C@H](CC(=O)O)NC(=O)[C@H](CC(N)=O)NC(=O)CCCNS(=O)(=O)c1ccc(Oc2ccccc2)cc1)C(=O)N1CCC[C@H]1C(N)=O ({Benzenesulfonyl(4-OPh)-GABA}-NDALMP-NH2),145,10.08,7.26
CSCC[C@@H](C(=O)N1CCC[C@H]1C(N)=O)N(C)C(=O)[C@H](CC(C)C)NC(=O)[C@H](C)NC(=O)[C@H](CC(=O)O)NC(=O)[C@H](CC(N)=O)NC(=O)CCCNS(=O)(=O)c1ccc(Oc2ccccc2)cc1 ({Benzenesulfonyl(4-OPh)-GABA}-NDAL[NMeM]P-NH2),57,9.89,8.15
CC(C)C[C@H](NC(=O)[C@H](CCN)NC(=O)[C@H](CC(=O)O)NC(=O)[C@H](CC(N)=O)NC(=O)CCCNC(=O)c1ccc(Oc2ccc(C(N)=O)cc2)cc1)C(=O)N(C)[C@@H](CCC(=O)O)C(=O)N1CCC[C@H]1CC(N)=O ({Benzoyl(4-OPh(4-CONH2))-GABA}-ND[Dab]L[NMeE][β3hP]-NH2),23100,9.77,6.27
CC(C)C[C@H](NC(=O)[C@H](C)NC(=O)[C@H](CC(=O)O)NC(=O)[C@H](CC(N)=O)NC(=O)CCCNS(=O)(=O)c1ccc(Oc2ccccc2)cc1)C(=O)N(C)[C@H](C(=O)N1CCC[C@H]1C(N)=O)C(C)C ({Benzenesulfonyl(4-OPh)-GABA}-NDAL[NMeV]P-NH2),282,10.11,7.68
